Patent publication US20130023504A1, “Modulation of Prostaglandin/Cyclooxygenase Metabolic Pathways” (HUNTER-FLEMING LIMITED, priority 2006, published 2013)
Marks after values point to notes of the source that are not given here.

Columns and labels:
Type in all cases: cell-based
Conditions in all cases: without TNF-α
human PBMC = test: PG levels (PGE2, PGD2, 15d-PGJ2) in culture medium of human PBMC cultured with and without TNF-α, EIA (Example 3)
Method: (§1) Whole blood was collected from donors in EDTA-supplemented pouches at the Etablissement Français du Sang (Brest, France). The PBMC were isolated then from whole blood under sterile conditions within 36 hours after collection. Gradient density centrifugation was carried out on Ficoll (Eurobio). After washing in RPMI 1640 medium (Eurobio), cells were suspended in RPMI 1640 medium supplemented with 10% heat-inactivated fetal calf serum (Eurobio), 2 mM glutamine (D. Dutscher), 100 U of penicillin/ml (D. Dutscher), and 100 μg of streptomycin/ml (D. Dutscher). Monocytes were selected by plastic adherence for 1 h and approximately 10^7 cells were plated in 6-well tissue culture plates (3 mL medium per well). All incubations were performed in a humidified incubator at 37° C. and 5% CO2. Cells were recovered and dispersed in 2 ml fresh incubation medium supplemented with either 7β-hydroxyEPIA, 7β-hydroxy-DHEA, or 7α-hydroxy-DHEA (in 20 μL ethanol) in the presence or absence of 0.01 μg/mL TNF-α (Sigma-Aldrich). Control incubations contained 20 μl ethanol but no steroid. Supernatants were collected after 4 h and 24 hours incubations for measurement of their PG contents and cells were used for subsequent RNA isolation. A single step extraction method using the Trizol Reagent (Invitrogen, Cergy-Pontoise, France) provided total RNA.
Commercially available EIA kits were used for the determination of PGE2 levels (Oxford Biomedical Research, UK) and 15d-PGJ2 levels (Assay designs, Euromedex, France) in culture media. Measurement of PGD2 levels was obtained using the prostaglandin D2-MOX EIA kit (Cayman Chemical, Euromedex). In this case, and prior to assay, the fresh samples were immediately treated with the MOX-HCl reagent, which converted PGD2 into PGD2-MOX, thus preventing any further chemical degradation.
(§2) All assays were carried out in triplicate and results were plotted as mean±S.E.M. One-way analysis of variance was performed followed by Duncan's multiple range tests in order to compare the differences between groups. Differences were considered statistically significant when p<0.05.

COX-2 mRNA = COX-2 mRNA in human PBMC with and without TNF-α, quantitative RT-PCR
Method: as §1
(§3) cDNAs were synthesized from TURBO DNase I—treated RNA (Ambion, Huntingdon, UK) using the Superscript first strand synthesis system kit (Invitrogen). RT-PCR amplification mixtures (50 μL) contained 2.5× RealMaster Mix/20×SYBR solution (11.25 μL) (Eppendorf, Le Pecq, France) and 200 nM forward and reverse primers. Reactions were run on a RealPlex ep gradient S mastercycler (Eppendorf). The cycling conditions were 10 minutes at 95° C. and 45 cycles at 95° C., 55° C. and 68° C. for 15 seconds, 30 seconds and 30 seconds, respectively. Each assay included a standard curve of four serial dilution points of control cDNA. The HPRT1 housekeeping gene was used for quantification. All oligonucleotide primers (Table 2) were synthesized by Genecust/Distribio (Evry, France). The specificity of the amplified product was monitored by examining the melting curve of the product and confirmed by analysis on agarose gel electrophoresis.
as §2

m-PGES1 mRNA = m-PGES1 mRNA in human PBMC with and without TNF-α, quantitative RT-PCR
Method: as §1, §3, §2

`CC12CCC3C(C1CCC2=O)[C@@H](O)C=C1C[C@@H](O)CCC13C` (stereo partly drawn) [7β-hydroxy-DHEA] showed a 15d-PGJ2 (human PBMC; 1 nM, 4 h) of 0.45 ± 0.016 ng/mL, a PGD2 (human PBMC; 1 nM, 4 h) of 0.18 ± 0.002 ng/mL and a PGE2 (human PBMC; 1 nM, 4 h) of 0.22 ± 0.003 ng/mL. The 15d-PGJ2 (human PBMC; 1 nM, 24 h) was 0.66 ± 0.013^a ng/mL, the PGD2 (human PBMC; 1 nM, 24 h) was 0.21 ± 0.009^a ng/mL and the PGE2 (human PBMC; 1 nM, 24 h) was 0.22 ± 0.003 ng/mL. It also gave a 15d-PGJ2 (human PBMC; 10 nM, 4 h) of 0.40 ± 0.014 ng/mL, a PGD2 (human PBMC; 10 nM, 4 h) of 0.14 ± 0.001 ng/mL and a PGE2 (human PBMC; 10 nM, 4 h) of 0.22 ± 0.013 ng/mL. The 15d-PGJ2 (human PBMC; 10 nM, 24 h) was 0.62 ± 0.008^a ng/mL, the PGD2 (human PBMC; 10 nM, 24 h) was 0.24 ± 0.001^a ng/mL and the PGE2 (human PBMC; 10 nM, 24 h) was 0.24 ± 0.002 ng/mL. The 15d-PGJ2 (human PBMC; 100 nM, 4 h) was 0.42 ± 0.030 ng/mL, the PGD2 (human PBMC; 100 nM, 4 h) was 0.19 ± 0.008 ng/mL and the PGE2 (human PBMC; 100 nM, 4 h) was 0.22 ± 0.002 ng/mL. The 15d-PGJ2 (human PBMC; 100 nM, 24 h) was 0.56 ± 0.020^a ng/mL, the PGD2 (human PBMC; 100 nM, 24 h) was 0.34 ± 0.025^a ng/mL and the PGE2 (human PBMC; 100 nM, 24 h) was 0.24 ± 0.004 ng/mL. For the same molecule, the “COX-2 (mRNA), mRNA production relative to controls” value (COX-2 mRNA; 1 nM, 4 h) was 1.20 ± 0.179, the “COX-2 (mRNA), mRNA production relative to controls” value (COX-2 mRNA; 1 nM, 24 h) was 1.76 ± 0.672 and the “COX-2 (mRNA), mRNA production relative to controls” value (COX-2 mRNA; 10 nM, 4 h) was 1.33 ± 0.039. The “COX-2 (mRNA), mRNA production relative to controls” value (COX-2 mRNA; 10 nM, 24 h) was 1.54 ± 0.630, the “COX-2 (mRNA), mRNA production relative to controls” value (COX-2 mRNA; 100 nM, 4 h) was 5.09 ± 1.166^a and the “COX-2 (mRNA), mRNA production relative to controls” value (COX-2 mRNA; 100 nM, 24 h) was 2.78 ± 0.580^a. The “mPGES1 (mRNA), mRNA production relative to controls” value (m-PGES1 mRNA; 1 nM, 4 h) was 0.43 ± 0.057^b, the “mPGES1 (mRNA), mRNA production relative to controls” value (m-PGES1 mRNA; 1 nM, 24 h) was 1.94 ± 0.422^a and the “mPGES1 (mRNA), mRNA production relative to controls” value (m-PGES1 mRNA; 10 nM, 4 h) was 0.67 ± 0.071^b. The “mPGES1 (mRNA), mRNA production relative to controls” value (m-PGES1 mRNA; 10 nM, 24 h) was 1.64 ± 0.338^a, the “mPGES1 (mRNA), mRNA production relative to controls” value (m-PGES1 mRNA; 100 nM, 4 h) was 0.82 ± 0.085^b and the “mPGES1 (mRNA), mRNA production relative to controls” value (m-PGES1 mRNA; 100 nM, 24 h) was 1.64 ± 0.322^a.
